Laboratory results published in patent US4599310A, “Process for producing antitumor antibiotic compound” (priority 1985, dated 1986).
In brackets after ≈: the same amount, converted by molar mass. Bridge positions count the residues as written; N and C are the ends. Square brackets hold non-standard residues; d marks the D form. Peptide text beside a SMILES is read from it. I, II: the chains in the order shown. * marks the point of attachment. Quinaldoyl(3-OH) = O=C(c1nc2ccccc2cc1O)*; NMeV = CN[CH](C(=O)O)C(C)C; Pip = O=C(O)[CH]1CCCCN1; Sar = CNCC(=O)O

Key:
S. aureus 209P-A9497 = assay: Antibacterial activity, serial two-fold agar dilution method; format: cell-based; details: Staphylococcus aureus, read-out: Minimum Inhibitory Concentration (MIC)
Protocol: (§1) The antibacterial activities of sandramycin were determined by a serial two-fold agar dilution method. The results are shown in Table 5 in comparison with the activities of luzopeptin A and echinomycin.

P-388 leukemia = assay: Transplantable mouse tumor P-388 leukemia; format: in vivo, mouse (CDF1 female mice); details: for MST (median survival time): control MST 9.0 days
Protocol: The methodology used generally followed the protocols of the National Cancer Institute [Cancer Chemotherapy Rep. Part 3, 3, 1-103 (1972)]. The essential experimental details are given at the bottom of Table 6. Two different dose regimens were tested: single dose on day 1 and daily for 5 days. With both schedules, the optimum dose appears to be about 0.2 mg/kg/injection.
Tumor inoculum: 10^6 ascites cells implanted i.p.
Evaluation: MST = median survival time
Effect: % T/C ≥ (MST treated/MST control) × 100
Criteria: % T/C = 125 considered significant antitumor activity
AWC: average weight change (treatedcontrol) in grams (on day 4)

[1] = test system: gram-positive organisms such as Bacillus subtilis and Staphylococcus aureus as well as Streptococcus faecalis; assay: Antibacterial activity, serial two-fold agar dilution method (statement in words); format: cell-based
Protocol: as §1

Structure (SMILES): CS[C@H]1SC[C@H]2C(=O)N(C)[C@@H](C(C)C)C(=O)OC[C@@H](NC(=O)c3cnc4ccccc4n3)C(=O)N[C@@H](C)C(=O)N(C)[C@@H]1C(=O)N(C)[C@@H](C(C)C)C(=O)OC[C@@H](NC(=O)c1cnc3ccccc3n1)C(=O)N[C@@H](C)C(=O)N2C [Echinomycin, reference compound]
- MIC (S. aureus 209P-A9497): 0.012 µg/mL (≈ 0.0109 µM)

Structure (SMILES): CC(C)C1C(=O)OCC(NC(=O)c2nc3ccccc3cc2O)C(=O)N2CCCCC2C(=O)NCC(=O)N(C)CC(=O)N(C)C(C(C)C)C(=O)OCC(NC(=O)c2nc3ccccc3cc2O)C(=O)N2CCCCC2C(=O)NCC(=O)N(C)CC(=O)N1C (stereo not drawn) [Sandramycin] (I: {Quinaldoyl(3-OH)}-S[Pip]G[Sar][NMeV] / II: {Quinaldoyl(3-OH)}-S[Pip]G[Sar][NMeV]; ester I:1-II:C, I:C-II:1; configuration not given here)
- MIC (S. aureus 209P-A9497): 0.012 µg/mL (≈ 0.00983 µM)
- optimum dose (P-388 leukemia; both schedules: single dose on day 1 and daily for 5 days, IP): about 0.2 mg/kg/injection
- AWC (average weight change) Day 4 (P-388 leukemia; d. 1, IP, 0.025 mg/kg/inj.): -0.2 gm
- MST (median survival time) (P-388 leukemia; d. 1, IP, 0.025 mg/kg/inj.): 9.5 days
- AWC (average weight change) Day 4 (P-388 leukemia; d. 1, IP, 0.05 mg/kg/inj.): -0.6 gm
- MST (median survival time) (P-388 leukemia; d. 1, IP, 0.05 mg/kg/inj.): 10.0 days
- AWC (average weight change) Day 4 (P-388 leukemia; d. 1, IP, 0.1 mg/kg/inj.): -0.9 gm
- MST (median survival time) (P-388 leukemia; d. 1, IP, 0.1 mg/kg/inj.): 11.0 days
- AWC (average weight change) Day 4 (P-388 leukemia; d. 1, IP, 0.2 mg/kg/inj.): -1.4 gm
- AWC (average weight change) Day 4 (P-388 leukemia; d. 1, IP, 0.4 mg/kg/inj.): -0.7 gm
- MST (median survival time) (P-388 leukemia; d. 1, IP, 0.4 mg/kg/inj.): 11.0 days
- AWC (average weight change) Day 4 (P-388 leukemia; d. 1, IP, 0.8 mg/kg/inj.): -1.6 gm
- MST (median survival time) (P-388 leukemia; d. 1, IP, 0.8 mg/kg/inj.): 10.0 days
- AWC (average weight change) Day 4 (P-388 leukemia; d. 1, IP, 1.6 mg/kg/inj.): -1.3 gm
- AWC (average weight change) Day 4 (P-388 leukemia; d. 1, IP, 3.2 mg/kg/inj.): -2.8 gm
- MST (median survival time) (P-388 leukemia; d. 1, IP, 3.2 mg/kg/inj.): Toxic
- AWC (average weight change) Day 4 (P-388 leukemia; d. 1→5, IP, 0.0125 mg/kg/inj.): -0.9 gm
- Survivors Day 5 (P-388 leukemia; d. 1→5, IP, 0.0125 mg/kg/inj.): 6/6
- AWC (average weight change) Day 4 (P-388 leukemia; d. 1→5, IP, 0.025 mg/kg/inj.): -1.4 gm
- MST (median survival time) (P-388 leukemia; d. 1→5, IP, 0.025 mg/kg/inj.): 10.0 days
- AWC (average weight change) Day 4 (P-388 leukemia; d. 1→5, IP, 0.05 mg/kg/inj.): -1.8 gm
- MST (median survival time) (P-388 leukemia; d. 1→5, IP, 0.05 mg/kg/inj.): 8.5 days
- AWC (average weight change) Day 4 (P-388 leukemia; d. 1→5, IP, 0.1 mg/kg/inj.): -0.8 gm
- AWC (average weight change) Day 4 (P-388 leukemia; d. 1→5, IP, 0.2 mg/kg/inj.): -1.7 gm
- MST (median survival time) (P-388 leukemia; d. 1→5, IP, 0.2 mg/kg/inj.): 12.0 days
- AWC (average weight change) Day 4 (P-388 leukemia; d. 1→5, IP, 0.4 mg/kg/inj.): -1.3 gm
- MST (median survival time) (P-388 leukemia; d. 1→5, IP, 0.4 mg/kg/inj.): 11.0 days
- AWC (average weight change) Day 4 (P-388 leukemia; d. 1→5, IP, 0.8 mg/kg/inj.): -1.4 gm
- MST (median survival time) (P-388 leukemia; d. 1→5, IP, 0.8 mg/kg/inj.): 6.0 days
- AWC (average weight change) Day 4 (P-388 leukemia; d. 1→5, IP, 1.6 mg/kg/inj.): -1.7 gm
- MST (median survival time) (P-388 leukemia; d. 1→5, IP, 1.6 mg/kg/inj.): Toxic
- antibacterial activity [1]: strongly inhibitory
